Assay results from ChEMBL document CHEMBL2086238, “Identification of ETP-46321, a potent and orally bioavailable PI3K α, δ inhibitor” (Bioorg Med Chem Lett, 2012).

Legend:
[1] = biological target: Ribosomal protein S6 kinase alpha-1 (Homo sapiens) (UniProt Q15418); assay: Inhibition of RPS6KA1 at 5 uM
[2] = biological target: Mast/stem cell growth factor receptor Kit (Homo sapiens) (UniProt P10721); assay: Inhibition of KIT at 1 uM
[3] = Stability in mouse liver microsomes at 1 uM incubated for 15 mins; format: ADME, Microsome; settings: read-out: Stability
[4] = biological target: Epidermal growth factor receptor (Homo sapiens) (UniProt P00533); assay: Inhibition of EGFR at 1 uM
Chain of Epidermal growth factor receptor (Homo sapiens) (P00533 whole entry): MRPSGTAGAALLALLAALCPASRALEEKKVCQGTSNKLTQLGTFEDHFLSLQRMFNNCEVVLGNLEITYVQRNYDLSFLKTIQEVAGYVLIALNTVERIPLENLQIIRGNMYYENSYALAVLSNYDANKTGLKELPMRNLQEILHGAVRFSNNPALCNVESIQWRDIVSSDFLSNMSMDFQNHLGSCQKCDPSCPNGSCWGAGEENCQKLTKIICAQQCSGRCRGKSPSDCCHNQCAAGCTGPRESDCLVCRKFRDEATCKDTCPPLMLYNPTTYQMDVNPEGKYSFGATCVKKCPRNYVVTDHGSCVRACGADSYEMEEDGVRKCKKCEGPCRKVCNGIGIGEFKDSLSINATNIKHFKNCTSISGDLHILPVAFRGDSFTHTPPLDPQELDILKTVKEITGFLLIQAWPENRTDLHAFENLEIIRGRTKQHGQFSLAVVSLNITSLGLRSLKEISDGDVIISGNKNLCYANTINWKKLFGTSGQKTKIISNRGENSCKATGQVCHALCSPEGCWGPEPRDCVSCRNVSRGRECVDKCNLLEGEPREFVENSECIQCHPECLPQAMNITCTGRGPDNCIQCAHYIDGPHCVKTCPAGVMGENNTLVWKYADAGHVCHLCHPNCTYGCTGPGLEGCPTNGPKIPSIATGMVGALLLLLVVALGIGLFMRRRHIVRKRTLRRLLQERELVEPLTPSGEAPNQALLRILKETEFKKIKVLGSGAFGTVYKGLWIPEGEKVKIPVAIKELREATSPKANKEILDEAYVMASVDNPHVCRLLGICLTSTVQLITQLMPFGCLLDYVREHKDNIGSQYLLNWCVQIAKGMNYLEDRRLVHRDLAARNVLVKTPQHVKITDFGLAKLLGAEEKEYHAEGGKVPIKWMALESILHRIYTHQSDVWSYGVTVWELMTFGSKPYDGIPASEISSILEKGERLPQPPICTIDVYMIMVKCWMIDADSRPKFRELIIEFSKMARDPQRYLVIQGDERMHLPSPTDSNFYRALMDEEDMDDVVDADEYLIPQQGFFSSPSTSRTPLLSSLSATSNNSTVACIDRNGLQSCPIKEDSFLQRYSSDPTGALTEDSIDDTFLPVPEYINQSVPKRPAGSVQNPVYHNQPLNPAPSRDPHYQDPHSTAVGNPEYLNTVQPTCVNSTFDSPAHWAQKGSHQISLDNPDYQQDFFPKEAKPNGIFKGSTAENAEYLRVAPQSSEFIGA

[5] = biological target: Receptor-type tyrosine-protein kinase FLT3 (Homo sapiens) (UniProt P36888); assay: Inhibition of FLT3 at 5 uM
Chain of Receptor-type tyrosine-protein kinase FLT3 (Homo sapiens) (P36888 whole entry): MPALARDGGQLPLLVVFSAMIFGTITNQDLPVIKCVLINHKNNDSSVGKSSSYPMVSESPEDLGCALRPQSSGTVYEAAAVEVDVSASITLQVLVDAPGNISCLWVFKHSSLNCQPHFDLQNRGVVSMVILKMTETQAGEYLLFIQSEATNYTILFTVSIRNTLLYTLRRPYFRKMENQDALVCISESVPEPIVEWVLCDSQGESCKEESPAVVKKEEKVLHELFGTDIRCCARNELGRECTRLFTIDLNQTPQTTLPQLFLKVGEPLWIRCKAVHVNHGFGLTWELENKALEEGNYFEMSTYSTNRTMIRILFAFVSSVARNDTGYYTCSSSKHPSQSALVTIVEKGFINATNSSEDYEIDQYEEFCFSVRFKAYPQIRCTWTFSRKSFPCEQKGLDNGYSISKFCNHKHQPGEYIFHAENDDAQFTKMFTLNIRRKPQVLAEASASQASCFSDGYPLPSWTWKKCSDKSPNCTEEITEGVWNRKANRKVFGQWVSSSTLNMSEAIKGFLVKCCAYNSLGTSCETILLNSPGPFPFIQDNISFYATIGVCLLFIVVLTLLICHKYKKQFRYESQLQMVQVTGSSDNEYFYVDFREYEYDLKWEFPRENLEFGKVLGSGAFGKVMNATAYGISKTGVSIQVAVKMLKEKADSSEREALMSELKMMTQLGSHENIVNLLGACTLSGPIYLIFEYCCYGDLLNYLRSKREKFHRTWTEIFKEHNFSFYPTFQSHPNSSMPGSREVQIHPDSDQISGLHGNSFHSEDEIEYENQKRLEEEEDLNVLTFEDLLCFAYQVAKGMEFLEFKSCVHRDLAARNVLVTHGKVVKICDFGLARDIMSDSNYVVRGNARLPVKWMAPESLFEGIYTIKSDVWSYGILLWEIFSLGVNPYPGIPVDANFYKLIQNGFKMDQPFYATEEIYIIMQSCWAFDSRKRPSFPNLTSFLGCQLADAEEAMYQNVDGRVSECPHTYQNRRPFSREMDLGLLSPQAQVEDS

[6] = biological target: Serine/threonine-protein kinase pim-1 (Homo sapiens) (UniProt P11309); assay: Inhibition of PIM1 at 5 uM
[7] = test system: Serine/threonine-protein kinase B-raf (Homo sapiens), P15056 [V600E]; assay: Inhibition of BRAF V600E mutant at 1 uM
[8] = biological target: Casein kinase I isoform alpha (Homo sapiens) (UniProt P48729); assay: Inhibition of CK1alpha1 at 5 uM
[9] = biological target: Mast/stem cell growth factor receptor Kit (Homo sapiens) (UniProt P10721); assay: Inhibition of KIT at 5 uM
[10] = Stability in human liver microsomes at 1 uM incubated for 15 mins; format: ADME, Microsome; settings: read-out: Stability
[11] = biological target: Serine/threonine-protein kinase pim-2 (Homo sapiens) (UniProt Q9P1W9); assay: Inhibition of PIM2 at 1 uM
CYP2C9 = CYP2C9 (Homo sapiens, UniProt P11712); assay: Inhibition of CYP2C9 at 10 uM; format: ADME
Chain of CYP2C9 (P11712 whole entry): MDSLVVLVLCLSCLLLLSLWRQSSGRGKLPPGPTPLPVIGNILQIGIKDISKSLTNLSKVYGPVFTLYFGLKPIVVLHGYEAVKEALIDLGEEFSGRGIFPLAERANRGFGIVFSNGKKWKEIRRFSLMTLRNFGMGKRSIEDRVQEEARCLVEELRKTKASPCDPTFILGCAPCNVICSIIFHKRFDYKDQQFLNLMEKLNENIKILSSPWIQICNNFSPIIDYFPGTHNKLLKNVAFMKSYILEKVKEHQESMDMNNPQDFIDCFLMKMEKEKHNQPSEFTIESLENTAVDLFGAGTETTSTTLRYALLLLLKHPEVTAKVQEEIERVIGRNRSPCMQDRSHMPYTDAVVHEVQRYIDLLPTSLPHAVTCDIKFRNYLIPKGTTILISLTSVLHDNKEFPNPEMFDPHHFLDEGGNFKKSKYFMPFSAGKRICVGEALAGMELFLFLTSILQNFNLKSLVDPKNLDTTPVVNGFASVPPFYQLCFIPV

[12] = biological target: Tyrosine-protein kinase JAK2 (Homo sapiens) (UniProt O60674); assay: Inhibition of JAK2 at 1 uM
[13] = biological target: Hepatocyte growth factor receptor (Homo sapiens) (UniProt P08581); assay: Inhibition of MET at 1 uM
CYP2D6 = CYP2D6 (Homo sapiens, UniProt P10635); assay: Inhibition of CYP2D6 at 10 uM; format: ADME
[14] = biological target: T1, Serine/threonine-protein kinase Sgk1 (Homo sapiens) (UniProt O00141); assay: Inhibition of SGK1 at 1 uM
T1 sequence (whole entry): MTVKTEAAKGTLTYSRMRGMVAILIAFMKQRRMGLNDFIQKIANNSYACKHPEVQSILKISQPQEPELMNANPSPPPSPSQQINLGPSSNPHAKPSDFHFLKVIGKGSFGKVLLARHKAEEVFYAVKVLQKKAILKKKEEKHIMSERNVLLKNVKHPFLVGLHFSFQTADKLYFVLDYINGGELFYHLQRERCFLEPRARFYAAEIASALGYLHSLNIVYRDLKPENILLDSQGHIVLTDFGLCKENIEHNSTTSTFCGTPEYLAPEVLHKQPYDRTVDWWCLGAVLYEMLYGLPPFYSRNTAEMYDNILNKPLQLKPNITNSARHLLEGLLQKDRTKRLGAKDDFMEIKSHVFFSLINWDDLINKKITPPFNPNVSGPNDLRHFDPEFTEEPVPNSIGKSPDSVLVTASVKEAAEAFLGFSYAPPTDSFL

[15] = biological target: Insulin-like growth factor 1 receptor (Homo sapiens) (UniProt P08069); assay: Inhibition of IGF1R at 5 uM
[16] = biological target: Fibroblast growth factor receptor 1 (Homo sapiens) (UniProt P11362); assay: Inhibition of FGFR1 at 1 uM
[17] = biological target: Epidermal growth factor receptor (Homo sapiens) (UniProt P00533); assay: Inhibition of EGFR at 5 uM
[18] = biological target: RAC-alpha serine/threonine-protein kinase (Homo sapiens) (UniProt P31749); assay: Inhibition of AKT1 at 1 uM
[19] = biological target: Serine/threonine-protein kinase PAK 1 (Homo sapiens) (UniProt Q13153); assay: Inhibition of PAK1 at 5 uM
Chain of Serine/threonine-protein kinase PAK 1 (Homo sapiens) (Q13153 whole entry): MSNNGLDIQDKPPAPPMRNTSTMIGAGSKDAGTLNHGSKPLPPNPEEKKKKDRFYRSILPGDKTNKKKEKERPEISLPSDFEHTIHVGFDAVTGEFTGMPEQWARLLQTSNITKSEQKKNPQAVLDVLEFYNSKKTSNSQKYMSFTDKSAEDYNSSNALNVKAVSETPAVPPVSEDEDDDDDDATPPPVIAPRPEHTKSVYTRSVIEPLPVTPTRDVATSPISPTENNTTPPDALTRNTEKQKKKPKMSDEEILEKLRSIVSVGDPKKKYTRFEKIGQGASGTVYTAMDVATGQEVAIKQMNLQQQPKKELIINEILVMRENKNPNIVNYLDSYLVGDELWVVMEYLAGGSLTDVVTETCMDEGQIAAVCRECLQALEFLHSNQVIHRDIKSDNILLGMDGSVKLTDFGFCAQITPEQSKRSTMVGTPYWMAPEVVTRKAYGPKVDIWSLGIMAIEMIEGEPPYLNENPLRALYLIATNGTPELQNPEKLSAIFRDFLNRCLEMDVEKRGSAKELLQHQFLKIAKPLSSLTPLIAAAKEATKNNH

[20] = Inhibition of PDGFR at 5 uM
[21] = biological target: T2, NUAK family SNF1-like kinase 1 (Homo sapiens) (UniProt O60285); assay: Inhibition of ARK5 at 5 uM
T2 sequence (whole entry): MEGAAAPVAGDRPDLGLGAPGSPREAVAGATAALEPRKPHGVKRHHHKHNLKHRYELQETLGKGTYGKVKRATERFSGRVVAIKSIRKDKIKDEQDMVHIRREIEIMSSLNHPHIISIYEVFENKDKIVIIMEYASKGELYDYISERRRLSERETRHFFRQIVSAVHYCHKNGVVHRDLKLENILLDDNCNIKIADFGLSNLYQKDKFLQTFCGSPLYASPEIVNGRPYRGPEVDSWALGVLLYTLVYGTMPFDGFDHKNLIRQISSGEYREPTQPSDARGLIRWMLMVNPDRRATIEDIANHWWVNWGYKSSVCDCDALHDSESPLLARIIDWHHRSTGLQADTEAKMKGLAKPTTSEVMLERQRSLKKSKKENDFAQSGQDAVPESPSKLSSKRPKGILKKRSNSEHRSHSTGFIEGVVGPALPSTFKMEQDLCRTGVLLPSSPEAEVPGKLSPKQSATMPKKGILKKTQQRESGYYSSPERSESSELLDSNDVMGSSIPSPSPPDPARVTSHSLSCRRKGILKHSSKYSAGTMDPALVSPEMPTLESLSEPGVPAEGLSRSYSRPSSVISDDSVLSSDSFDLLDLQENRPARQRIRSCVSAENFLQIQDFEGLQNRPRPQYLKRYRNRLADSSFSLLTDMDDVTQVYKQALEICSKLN

[22] = biological target: PI3-kinase p110-alpha/p85-alpha (Homo sapiens, UniProt P42336); assay: Inhibition of human PI3Kalpha (p110alpha/p85alpha) by ADP accumulation based HTRF assay; format: protein-complex assay; settings: for Ki: read-out: Ki(app)
[23] = biological target: Insulin receptor (Homo sapiens) (UniProt P06213); assay: Inhibition of INSR at 1 uM
[24] = biological target: Focal adhesion kinase 1 (Homo sapiens) (UniProt Q05397); assay: Inhibition of FAK at 1 uM
CYP2C19 = CYP2C19 (Homo sapiens, UniProt P33261); assay: Inhibition of CYP2C19 at 10 uM; format: ADME
Chain of CYP2C19 (P33261 whole entry): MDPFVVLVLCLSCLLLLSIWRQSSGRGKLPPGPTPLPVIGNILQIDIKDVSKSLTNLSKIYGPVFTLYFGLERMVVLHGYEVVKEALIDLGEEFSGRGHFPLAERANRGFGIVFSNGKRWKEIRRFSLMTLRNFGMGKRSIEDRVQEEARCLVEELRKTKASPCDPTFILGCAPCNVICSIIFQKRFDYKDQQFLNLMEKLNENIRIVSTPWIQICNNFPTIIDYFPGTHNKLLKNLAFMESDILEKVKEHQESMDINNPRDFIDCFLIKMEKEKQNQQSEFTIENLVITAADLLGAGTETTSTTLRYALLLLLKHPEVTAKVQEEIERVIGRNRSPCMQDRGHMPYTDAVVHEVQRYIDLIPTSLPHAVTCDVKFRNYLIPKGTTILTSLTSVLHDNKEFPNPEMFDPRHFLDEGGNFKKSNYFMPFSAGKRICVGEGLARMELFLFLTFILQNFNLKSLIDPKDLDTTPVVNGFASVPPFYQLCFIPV

[25] = biological target: Receptor-type tyrosine-protein kinase FLT3 (Homo sapiens) (UniProt P36888); assay: Inhibition of FLT3 at 1 uM
[26] = biological target: Mitogen-activated protein kinase 8 (Homo sapiens) (UniProt P45983); assay: Inhibition of JNK1 at 5 uM
Chain of Mitogen-activated protein kinase 8 (Homo sapiens) (P45983 whole entry): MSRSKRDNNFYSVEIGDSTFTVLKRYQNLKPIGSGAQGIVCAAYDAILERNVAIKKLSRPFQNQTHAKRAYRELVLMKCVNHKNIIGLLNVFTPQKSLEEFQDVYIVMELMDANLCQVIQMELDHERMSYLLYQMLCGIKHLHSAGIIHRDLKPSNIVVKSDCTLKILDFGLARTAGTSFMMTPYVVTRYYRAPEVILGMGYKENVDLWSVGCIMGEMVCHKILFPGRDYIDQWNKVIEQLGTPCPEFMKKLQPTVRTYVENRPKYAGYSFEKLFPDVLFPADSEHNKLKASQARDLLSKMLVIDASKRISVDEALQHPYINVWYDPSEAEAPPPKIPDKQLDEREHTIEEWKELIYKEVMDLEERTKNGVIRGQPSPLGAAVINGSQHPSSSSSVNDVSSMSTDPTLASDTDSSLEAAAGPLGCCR

[27] = biological target: Hepatocyte growth factor receptor (Homo sapiens) (UniProt P08581); assay: Inhibition of MET at 5 uM
[28] = biological target: Dual specificity mitogen-activated protein kinase kinase 1 (Homo sapiens) (UniProt Q02750); assay: Inhibition of MEK1 at 1 uM
[29] = biological target: Dual specificity tyrosine-phosphorylation-regulated kinase 1A (Homo sapiens) (UniProt Q13627); assay: Inhibition of DYRK1A at 5 uM
[30] = biological target: RAC-alpha serine/threonine-protein kinase (Homo sapiens) (UniProt P31749); assay: Inhibition of AKT1 at 5 uM
[31] = biological target: Casein kinase I isoform alpha (Homo sapiens) (UniProt P48729); assay: Inhibition of CK1alpha1 at 1 uM
CYP3A4 = CYP3A4 (Homo sapiens, UniProt P08684); assay: Inhibition of CYP3A4 at 10 uM; format: ADME
[32] = biological target: Phosphatidylinositol 4,5-bisphosphate 3-kinase catalytic subunit alpha isoform (Homo sapiens, UniProt P42336); assay: Inhibition of PI3Kalpha in human U2OS cells assessed as inhibition of AKT Ser 473 phosphorylation by Western blot; format: cell-based

Chain of Ribosomal protein S6 kinase alpha-1 (Homo sapiens) (Q15418 whole entry): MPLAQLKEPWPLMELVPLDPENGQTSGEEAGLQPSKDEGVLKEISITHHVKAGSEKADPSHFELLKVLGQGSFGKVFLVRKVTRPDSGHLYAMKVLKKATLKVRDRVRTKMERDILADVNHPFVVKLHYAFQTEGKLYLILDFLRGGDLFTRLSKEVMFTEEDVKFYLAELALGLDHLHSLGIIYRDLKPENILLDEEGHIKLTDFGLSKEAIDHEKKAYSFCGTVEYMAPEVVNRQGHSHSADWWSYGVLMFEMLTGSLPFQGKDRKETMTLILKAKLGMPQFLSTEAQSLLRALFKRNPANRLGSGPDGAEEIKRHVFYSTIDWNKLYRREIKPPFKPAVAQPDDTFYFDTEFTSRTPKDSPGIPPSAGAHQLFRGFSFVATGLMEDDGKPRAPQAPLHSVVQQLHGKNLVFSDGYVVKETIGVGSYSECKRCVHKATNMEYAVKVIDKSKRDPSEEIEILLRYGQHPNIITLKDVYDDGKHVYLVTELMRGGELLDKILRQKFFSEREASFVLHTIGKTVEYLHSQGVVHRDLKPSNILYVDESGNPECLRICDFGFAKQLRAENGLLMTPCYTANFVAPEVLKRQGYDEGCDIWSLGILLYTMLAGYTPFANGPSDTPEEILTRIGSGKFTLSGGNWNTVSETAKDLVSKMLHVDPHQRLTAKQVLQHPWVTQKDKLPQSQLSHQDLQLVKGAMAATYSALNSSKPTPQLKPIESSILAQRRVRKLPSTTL

inhibition [1] [%]	inhibition [2] [%]	inhibition [4] [%]	inhibition [5] [%]	inhibition [6] [%]	inhibition [7] [%]	inhibition [8] [%]	inhibition [9] [%]	inhibition [11] [%]	inhibition [12] [%]	inhibition [13] [%]	inhibition [14] [%]	inhibition [15] [%]	inhibition [16] [%]	inhibition [17] [%]	inhibition [18] [%]	inhibition [19] [%]	inhibition [20] [%]	inhibition [21] [%]	inhibition [23] [%]	further results	SMILES
< 30	< 30	< 30	< 30	< 30	< 30	< 30	< 30	< 30	< 30	< 30	< 30	< 30	< 30	< 30	< 30	< 30	< 30	< 30	< 30	remaining at 0.25 h, 1 µM [3]: 80%; remaining at 0.25 h, 1 µM [10]: 88%; inhibition at 10 µM (CYP2C9): < 30%; inhibition at 10 µM (CYP2D6): < 30%; IC50 [22]: 0.01 µM; Ki [22]: 0.0101 µM; inhibition [24]: < 30%; inhibition at 10 µM (CYP2C19): < 30%; inhibition [25]: < 30%; inhibition [26]: < 30%; inhibition [27]: < 30%; inhibition [28]: < 30%; inhibition [29]: < 30%; inhibition [30]: < 30%; inhibition [31]: < 30%; inhibition at 10 µM (CYP3A4): < 30%; IC50 [32]: 0.0154 µM	Cc1c(CN2CCN(S(C)(=O)=O)CC2)nc2c(N3CCOCC3)nc(-c3cnc(N)nc3)cn12
< 30	< 30	< 30	< 30	< 30	< 30	< 30	< 30	< 30	< 30	< 30	< 30	< 30	< 30	< 30	< 30	< 30	< 30	< 30	< 30	remaining at 0.25 h, 1 µM [3]: 91%; remaining at 0.25 h, 1 µM [10]: 86%; inhibition at 10 µM (CYP2C9): < 30%; inhibition at 10 µM (CYP2D6): < 30%; Ki [22]: 0.0024 µM; inhibition [24]: < 30%; inhibition at 10 µM (CYP2C19): < 30%; inhibition [25]: < 30%; inhibition [26]: < 30%; inhibition [27]: < 30%; inhibition [28]: < 30%; inhibition [29]: < 30%; inhibition [30]: < 30%; inhibition [31]: < 30%; inhibition at 10 µM (CYP3A4): < 30%; IC50 [32]: 0.0052 µM	CS(=O)(=O)N1CCN(Cc2cn3c(Cl)c(-c4cnc(N)nc4)nc(N4CCOCC4)c3n2)CC1
< 30	< 30	< 30	< 30	< 30	< 30	< 30	< 30	< 30	< 30	< 30	< 30	< 30	< 30	< 30	< 30	< 30	< 30	< 30	< 30	inhibition [24]: < 30%; inhibition [25]: < 30%; inhibition [26]: < 30%; inhibition [27]: < 30%; inhibition [28]: < 30%; inhibition [29]: < 30%; inhibition [30]: < 30%; inhibition [31]: < 30%	Cc1nc(N)ncc1-c1cn2cc(CN3CCN(S(C)(=O)=O)CC3)nc2c(N2CCOCC2)n1
< 30	< 30	< 30	< 30	< 30	< 30	< 30	< 30	< 30	< 30	< 30	< 30	< 30	< 30	< 30	< 30	< 30	< 30	< 30	< 30	remaining at 0.25 h, 1 µM [3]: 88%; remaining at 0.25 h, 1 µM [10]: 93%; inhibition at 10 µM (CYP2C9): < 30%; inhibition at 10 µM (CYP2D6): < 30%; inhibition [24]: < 30%; inhibition at 10 µM (CYP2C19): < 30%; inhibition [25]: < 30%; inhibition [26]: < 30%; inhibition [27]: < 30%; inhibition [28]: < 30%; inhibition [29]: < 30%; inhibition [30]: < 30%; inhibition [31]: < 30%; inhibition at 10 µM (CYP3A4): < 30%	CS(=O)(=O)N1CCN(Cc2cn3cc(-c4cnc(N)nc4)nc(N4CCOCC4)c3n2)CC1
